Source: US7915291B2, “Hepatitis C virus inhibitors” (Bristol-Myers Squibb Company, priority 2002, dated 2011)
Read-outs that look alike come from different tables or passages of the source.

Assays:
HCV = conditions: cited from earlier work
[1] = target: HCV NS3/4A protease complex, BMS strain (UniProt P27958, C1454S/C1711G, species not given/STRAIN_BMS); assay: Recombinant HCV NS3/4A protease complex FRET peptide assay (BMS strain); format: biochemical, HCV genotype 1a
How it was run: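 Percent inhibition taken from the linear-range fluorescence slope relative to uninhibited control, read kinetically for about 15 min at 25° C. Enzyme (2-3 nM, BMS NS3/4A complex, lysine-tailed, Ni-NTA purified) met compound for 1 min before 2 μM FRET depsipeptide substrate started cleavage.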

[2] = test system: HCV replicon in Huh7 cells; assay: HCV replicon cell-based assay; design: species or system HCV strain 1B; conditions: Hepatitis C virus, Huh-7; HCV replicon, Huh7 cells; read-out: EC50 range
[3] = NS3/4A BMS strain; read-out: IC50 range
[4] = read-out: IC50 range; NS3/4A BMS strain

| Compound | sustained efficacy, share of patients (HCV; HCV infected patients, combination therapy) | clinical comparison as monotherapy (HCV; HCV patients, monotherapy, recent clinical results) | IC50 [1, 3] | EC50 [2] | IC50 [1, 4] |
| --- | --- | --- | --- | --- | --- |
| alpha-interferon and ribavirin | 40% | – | – | – | – |
| pegylated alpha-interferon | – | superior to unmodified alpha-interferon | – | – | – |
| C=C[C@@H]1C[C@]1(NC(=O)[C@@H]1C[C@@H](Oc2nccc3cc(OC)ccc23)CN1C(=O)[C@@H](NC(=O)OC(C)(C)C)[C@@H](C)OC(C)(C)C)C(=O)NS(=O)(=O)C1CC1 [Compound 93] | – | – | 0.1 to 1 µM | 0.1 to 1 µM | – |
| C=C[C@@H]1C[C@]1(NC(=O)[C@@H]1C[C@@H](Oc2ncc(Cl)c3ccc(OC)cc23)CN1C(=O)[C@@H](NC(=O)OC(C)(C)C)C(C)(C)C)C(=O)NS(=O)(=O)C1CC1 [Compound 284] | – | – | 0.1 to 1 µM | 10 to 100 µM | – |
| C=C[C@@H]1C[C@]1(NC(=O)[C@@H]1C[C@@H](Oc2nccc3cc(OC)ccc23)CN1C(=O)[C@@H](NC(=O)OC(C)(C)CC)[C@H](C)OC)C(=O)NS(=O)(=O)C1CC1 [Compound 105] | – | – | – | < 0.1 µM | < 0.1 µM |
| C=C[C@@H]1CC1(NC(=O)[C@@H]1CC(Oc2nccc3cc(OC)ccc23)CN1C(=O)[C@@H](NC(=O)NC1CCCC1)C(C)(C)C)C(=O)NS(=O)(=O)C1CC1 (stereo partly shown) [Compound 75] | – | – | < 0.1 µM | < 0.1 µM | – |
| C=C[C@@H]1C[C@]1(NC(=O)[C@@H]1C[C@@H](Oc2nccc3cc(OC)ccc23)CN1C(=O)[C@@H](NC(=O)N[C@@H](Cc1c[nH]cn1)C(=O)OC)C(C)(C)C)C(=O)NS(=O)(=O)C1CC1 [Compound 147] | – | – | < 0.1 µM | 1 to 10 µM | – |
| C=C[C@@H]1C[C@]1(NC(=O)[C@@H]1C[C@@H](Oc2nc(-c3ccc(N(C)C)cc3)cc3ccccc23)CN1C(=O)[C@@H](NC(=O)OC(C)(C)C)C(C)(C)C)C(=O)NS(=O)(=O)C1CC1 [Compound 28] | – | – | < 0.1 µM | < 0.1 µM | – |
| C=C[C@@H]1C[C@]1(NC(=O)[C@@H]1C[C@@H](Oc2nccc3cc(OC)ccc23)CN1C(=O)[C@@H](NC(=O)OC(C)(C)C)C1CCCC1)C(=O)NS(=O)(=O)C1CC1 [Compound 149] | – | – | < 0.1 µM | < 0.1 µM | – |
| C=C[C@@H]1C[C@]1(NC(=O)[C@@H]1CC(Oc2nccc3cc(OC)ccc23)CN1C(=O)[C@@H](NC(=O)OC(C)(C)C)C(C)(C)O)C(=O)NS(=O)(=O)C1CC1 (stereo partly shown) [Compound 89] | – | – | < 0.1 µM | < 0.1 µM | – |
| C=C[C@@H]1CC1(NC(=O)[C@@H]1CC(Oc2nccc3cc(OC)ccc23)CN1C(=O)[C@@H](NC(=O)CO[C@@H]1C[C@H](C)CC[C@H]1C(C)C)C(C)(C)C)C(=O)NS(=O)(=O)C1CC1 (stereo partly shown) [Compound 61] | – | – | 0.1 to 1 µM | 1 to 10 µM | – |
| C=C[C@@H]1C[C@]1(NC(=O)[C@@H]1C[C@@H](Oc2nccc3ccc(F)cc23)CN1C(=O)[C@@H](NC(=O)OC(C)(C)C)C(C)(C)C)C(=O)NS(=O)(=O)C1CC1 [Compound 257] | – | – | < 0.1 µM | < 0.1 µM | – |
| C=CCCCCC[C@H](NC(=O)OC(C)(C)C)C(=O)N1C[C@H](Oc2ccnc3cc(OC)ccc23)C[C@H]1C(=O)N[C@]1(C(=O)NS(=O)(=O)C2CC2)C[C@H]1C=C [Compound 377] | – | – | < 0.1 µM | 0.1 to 1 µM | – |
| C=C[C@@H]1C[C@]1(NC(=O)[C@@H]1C[C@@H](Oc2nccc3cc(OC)ccc23)CN1C(=O)[C@@H](NC(=O)N(C)[C@H](C(=O)OC)C(C)C)C(C)(C)C)C(=O)NS(=O)(=O)C1CC1 [Compound 154] | – | – | < 0.1 µM | 0.1 to 1 µM | – |
| C=C[C@@H]1C[C@]1(NC(=O)[C@@H]1C[C@@H](Oc2cc(-c3cccs3)ncn2)CN1C(=O)[C@@H](NC(=O)OC(C)(C)C)C(C)(C)C)C(=O)NS(=O)(=O)C1CC1 [Compound 412] | – | – | < 0.1 µM | < 0.1 µM | – |
| C=CC1C[C@]1(NC(=O)[C@@H]1C[C@@H](Oc2cc(C(F)(F)F)nc3ccccc23)CN1C(=O)[C@@H](NC(=O)OC(C)(C)C)C(C)(C)C)C(=O)NS(=O)(=O)C1CC1 (stereo partly drawn) [Compound 180, BOCNH-P3(L-tert-BuGly)-P2[(4R)-(2-trifluoromethyl quinolin-4-oxo)-S-proline]-P1(1R,2S Vinyl Acca)-CONHSO2-Cyclopropane] | – | – | < 0.1 µM | 0.1 to 1 µM | – |
| C=C[C@@H]1C[C@]1(NC(=O)[C@@H]1C[C@@H](Oc2nccc3c(C(F)(F)F)cccc23)CN1C(=O)[C@@H](NC(=O)OC(C)(C)C)C(C)(C)C)C(=O)NS(=O)(=O)C1CC1 [Compound 270] | – | – | < 0.1 µM | 0.1 to 1 µM | – |
| C=C[C@@H]1C[C@]1(NC(=O)[C@@H]1C[C@@H](Oc2ccnc(-c3nccs3)c2)CN1C(=O)[C@@H](NC(=O)OC1CCCC1)C(C)(C)C)C(=O)NS(=O)(=O)C1CC1 [Compound 431] | – | – | < 0.1 µM | 0.1 to 1 µM | – |
| C=C[C@@H]1C[C@]1(NC(=O)[C@@H]1C[C@@H](Oc2nccc3cc(OC)ccc23)CN1C(=O)[C@H](CC(=O)OC(C)(C)C)NC(=O)OC(C)(C)C)C(=O)NS(=O)(=O)C1CC1 [Compound 139] | – | – | < 0.1 µM | 0.1 to 1 µM | – |
| C=CC1C[C@]1(NC(=O)[C@@H]1C[C@@H](Oc2nnc(-n3ccnc3)c3ccccc23)CN1C(=O)[C@@H](NC(=O)OC(C)(C)C)C(C)(C)C)C(=O)NS(=O)(=O)C1CC1 (stereo partly drawn) [Compound 196, BOCNH-P3(L-tert-BuGly)-P2[(4R)-(4-(imidazo-1-yl)phthalazine-1-oxo)-S-proline]-P1(1R,2S Vinyl Acca)-CONHSO2-Cyclopropane] | – | – | < 0.1 µM | 1 to 10 µM | – |
| C=C[C@@H]1CC1(NC(=O)[C@@H]1CC(Oc2nccc3cc(OC)ccc23)CN1C(=O)[C@@H](NC(=O)OCc1ccccc1)C(C)(C)C)C(=O)NS(=O)(=O)C1CC1 (stereo partly shown) [Compound 64] | – | – | – | < 0.1 µM | < 0.1 µM |
| C=C[C@@H]1C[C@]1(NC(=O)[C@@H]1C[C@@H](Oc2ccnc3cc(Cl)ccc23)CN1C(=O)[C@@H](NC(=O)OC1CCCC1)C(C)(C)C)C(=O)NS(=O)(=O)C1CC1 [Compound 372] | – | – | < 0.1 µM | < 0.1 µM | – |
| C=C[C@@H]1C[C@]1(NC(=O)[C@@H]1C[C@@H](Oc2cc(-c3ccccc3)nc(-c3cccs3)c2)CN1C(=O)[C@@H](NC(=O)OC(C)(C)C)C(C)(C)C)C(=O)NS(=O)(=O)C1CC1 [Compound 413] | – | – | < 0.1 µM | < 0.1 µM | – |
| C=C[C@@H]1C[C@]1(NC(=O)[C@@H]1C[C@@H](Oc2nccc3cc4c(cc23)OC(F)(F)O4)CN1C(=O)[C@@H](NC(=O)OC(C)(C)C)C(C)(C)C)C(=O)NS(=O)(=O)C1CC1 [Compound 288] | – | – | < 0.1 µM | 1 to 10 µM | – |
| C=C[C@@H]1C[C@]1(NC(=O)[C@@H]1C[C@@H](Oc2nccc3cc(OC)ccc23)CN1C(=O)[C@@H](NC(=O)OC(C)(C)C)[C@H](C)CC)C(=O)NS(=O)(=O)C1CC1 [Compound 13] | – | – | < 0.1 µM | < 0.1 µM | – |
| C=C[C@@H]1C[C@]1(NC(=O)[C@@H]1C[C@@H](Oc2nccc3cc(OC)c(F)cc23)CN1C(=O)[C@@H](NC(=O)OC(C)(C)C)C(C)(C)C)C(=O)NS(=O)(=O)C1CC1 [Compound 261] | – | – | < 0.1 µM | < 0.1 µM | – |
| C=C[C@@H]1C[C@]1(NC(=O)[C@@H]1C[C@@H](Oc2nccc3cc(OC)ccc23)CN1C(=O)[C@@H](NC(=O)OC(C)(C)C(F)(F)F)[C@H](C)OC)C(=O)NS(=O)(=O)C1CC1 [Compound 106] | – | – | < 0.1 µM | < 0.1 µM | – |
| C=C[C@@H]1C[C@]1(NC(=O)[C@@H]1C[C@@H](Oc2cc(-c3ccccc3)nc3c(C)noc23)CN1C(=O)[C@@H](NC(=O)OC(C)(C)C)C(C)(C)C)C(=O)NS(=O)(=O)C1CC1 [Compound 1] | – | – | < 0.1 µM | < 0.1 µM | – |
| C=C[C@@H]1C[C@]1(NC(=O)[C@@H]1C[C@@H](Oc2nccc3ccccc23)CN1C(=O)[C@@H](NC(=O)OCCF)C(C)(C)C)C(=O)NS(=O)(=O)C1CC1 [Compound 126] | – | – | < 0.1 µM | 0.1 to 1 µM | – |
| C=C[C@@H]1C[C@]1(NC(=O)[C@@H]1C[C@@H](Oc2nccc3ccccc23)CN1C(=O)[C@@H](NC(=O)[C@@H]1COc2ccccc2O1)C(C)(C)C)C(=O)NS(=O)(=O)C1CC1 [Compound 133] | – | – | 0.1 to 1 µM | 1 to 10 µM | – |
